Measured values taken from ChEMBL document CHEMBL3885861, “Open TG-GATES”.

Species on record: Rattus norvegicus
Experiment: Open TG-GATES - Regimen: Daily Repeat
Format: toxicity, organism-based, Sprague-Dawley
Set-up: regimen Daily Repeat, gender Male, age 6 weeks
Details: in vivo, po, 0 mg/kg, route gavage, dose level Control; for APTT / Bas / Eos / Fbg / Hb / Ht / Lym / MCH / MCHC / MCV / Mono / Neu / PT / Plat / RBC / Ret / WBC: tissue Blood; for KIDNEY_L / KIDNEY_R / KIDNEY_TOTAL: tissue Kidney; for LIVER: tissue Liver; for A/G / ALP / ALT / AST / BUN / CRE / Ca / Cl / DBIL / GLC / IP / K / LDH / Na / PL / RALB / TBIL / TC / TG / TP / gamma-GTP: tissue Plasma

`Brc1ccccc1` [BROMOBENZENE] gave a TERMINAL_BW (72 h, time 3 day) of 210.3 g, an APTT (72 h, time 3 day) of 15.5 s and a Bas (72 h, time 3 day) of 0%. For the same compound, the Eos (72 h, time 3 day) was 1%, the Fbg (72 h, time 3 day) was 264.4 mg/dL and the Hb (72 h, time 3 day) was 13.1 g/dL. It also gave a Ht (72 h, time 3 day) of 38.3%, a Lym (72 h, time 3 day) of 79.8% and an MCH (72 h, time 3 day) of 21.4 pg. For the same compound, the MCHC (72 h, time 3 day) was 34.3%, the MCV (72 h, time 3 day) was 62.4 fL and the Mono (72 h, time 3 day) was 3.2%. It also gave a Neu (72 h, time 3 day) of 15.6%, a PT (72 h, time 3 day) of 12 s and a Plat (72 h, time 3 day) of 116.4 x10_4/uL. For the same compound, the RBC (72 h, time 3 day) was 613.6 x10_4/ul, the Ret (72 h, time 3 day) was 7.8% and the WBC (72 h, time 3 day) was 89.2 x10_2/uL. For the same compound, the KIDNEY_L (72 h, time 3 day) was 0.9 g, the KIDNEY_R (72 h, time 3 day) was 0.8 g and the KIDNEY_TOTAL (72 h, time 3 day) was 1.7 g. For the same compound, the LIVER (72 h, time 3 day) was 10 g, the A/G (72 h, time 3 day) was 0.9 and the ALP (72 h, time 3 day) was 1625.4 IU/L. The ALT (72 h, time 3 day) was 52.2 IU/L, the AST (72 h, time 3 day) was 77.8 IU/L and the BUN (72 h, time 3 day) was 14.8 mg/dL. For the same compound, the CRE (72 h, time 3 day) was 0.2 mg/dL, the Ca (72 h, time 3 day) was 10.2 mg/dL and the Cl (72 h, time 3 day) was 104.8 meq/L. The DBIL (72 h, time 3 day) was 0.012 mg/dL, the GLC (72 h, time 3 day) was 187 mg/dL and the IP (72 h, time 3 day) was 7.6 mg/dL. It also gave a K (72 h, time 3 day) of 4 meq/L, an LDH (72 h, time 3 day) of 63.6 IU/L and a Na (72 h, time 3 day) of 141.8 meq/L. The PL (72 h, time 3 day) was 142.6 mg/dL, the RALB (72 h, time 3 day) was 2.6 g/dL and the TBIL (72 h, time 3 day) was 0.04 mg/dL. The TC (72 h, time 3 day) was 79 mg/dL, the TG (72 h, time 3 day) was 101 mg/dL and the TP (72 h, time 3 day) was 5.7 g/dL. It also gave a gamma-GTP (72 h, time 3 day) of 1.2 IU/L, a TERMINAL_BW ([…], time 7 day) of 242.1 g and a TERMINAL_BW ([…], time 14 day) of 295 g. For the same compound, the TERMINAL_BW ([…], time 28 day) was 384.4 g, the APTT ([…], time 7 day) was 15.7 s and the Bas ([…], time 7 day) was 0.2%. For the same compound, the Eos ([…], time 7 day) was 1%, the Fbg ([…], time 7 day) was 283.4 mg/dL and the Hb ([…], time 7 day) was 13.4 g/dL. It also gave a Ht ([…], time 7 day) of 39%, a Lym ([…], time 7 day) of 78.4% and an MCH ([…], time 7 day) of 21.4 pg. For the same compound, the MCHC ([…], time 7 day) was 34.5%, the MCV ([…], time 7 day) was 61.9 fL and the Mono ([…], time 7 day) was 2.8%. It also gave a Neu ([…], time 7 day) of 18%, a PT ([…], time 7 day) of 12.3 s and a Plat ([…], time 7 day) of 115.5 x10_4/uL. The RBC ([…], time 7 day) was 630.4 x10_4/ul, the Ret ([…], time 7 day) was 5.8% and the WBC ([…], time 7 day) was 112.8 x10_2/uL. It also gave an APTT ([…], time 14 day) of 15.8 s, a Bas ([…], time 14 day) of 0% and an Eos ([…], time 14 day) of 0.8%. For the same compound, the Fbg ([…], time 14 day) was 320.2 mg/dL, the Hb ([…], time 14 day) was 13.8 g/dL and the Ht ([…], time 14 day) was 39.9%. It also gave a Lym ([…], time 14 day) of 77%, an MCH ([…], time 14 day) of 20.8 pg and an MCHC ([…], time 14 day) of 34.7%. It also gave an MCV ([…], time 14 day) of 60 fL, a Mono ([…], time 14 day) of 2.4% and a Neu ([…], time 14 day) of 19%. For the same compound, the PT ([…], time 14 day) was 12 s, the Plat ([…], time 14 day) was 113.5 x10_4/uL and the RBC ([…], time 14 day) was 665.6 x10_4/ul. The Ret ([…], time 14 day) was 4.4%, the WBC ([…], time 14 day) was 89.1 x10_2/uL and the APTT ([…], time 28 day) was 17.6 s. The Bas ([…], time 28 day) was 0%, the Eos ([…], time 28 day) was 1.6% and the Fbg ([…], time 28 day) was 301 mg/dL. The Hb ([…], time 28 day) was 14.9 g/dL, the Ht ([…], time 28 day) was 42.4% and the Lym ([…], time 28 day) was 79.4%. The MCH ([…], time 28 day) was 19.4 pg, the MCHC ([…], time 28 day) was 35.1% and the MCV ([…], time 28 day) was 55.4 fL. The Mono ([…], time 28 day) was 2.6%, the Neu ([…], time 28 day) was 15.4% and the PT ([…], time 28 day) was 12.5 s. For the same compound, the Plat ([…], time 28 day) was 103.9 x10_4/uL, the RBC ([…], time 28 day) was 765 x10_4/ul and the Ret ([…], time 28 day) was 2.4%. It also gave a WBC ([…], time 28 day) of 110.4 x10_2/uL, a KIDNEY_L ([…], time 7 day) of 1 g and a KIDNEY_R ([…], time 7 day) of 1 g. The KIDNEY_TOTAL ([…], time 7 day) was 2 g, the KIDNEY_L ([…], time 14 day) was 1.2 g and the KIDNEY_R ([…], time 14 day) was 1.1 g. It also gave a KIDNEY_TOTAL ([…], time 14 day) of 2.3 g, a KIDNEY_L ([…], time 28 day) of 1.3 g and a KIDNEY_R ([…], time 28 day) of 1.3 g. The KIDNEY_TOTAL ([…], time 28 day) was 2.6 g, the LIVER ([…], time 7 day) was 11 g and the LIVER ([…], time 14 day) was 12.9 g. The LIVER ([…], time 28 day) was 16.6 g, the A/G ([…], time 7 day) was 0.8 and the ALP ([…], time 7 day) was 1737.2 IU/L. For the same compound, the ALT ([…], time 7 day) was 51 IU/L, the AST ([…], time 7 day) was 72.6 IU/L and the BUN ([…], time 7 day) was 14.8 mg/dL. The CRE ([…], time 7 day) was 0.2 mg/dL, the Ca ([…], time 7 day) was 11 mg/dL and the Cl ([…], time 7 day) was 107 meq/L. It also gave a DBIL ([…], time 7 day) of 0.012 mg/dL, a GLC ([…], time 7 day) of 191.2 mg/dL and an IP ([…], time 7 day) of 7 mg/dL. For the same compound, the K ([…], time 7 day) was 3.9 meq/L, the LDH ([…], time 7 day) was 97 IU/L and the Na ([…], time 7 day) was 143.8 meq/L. It also gave a PL ([…], time 7 day) of 145.8 mg/dL, an RALB ([…], time 7 day) of 2.7 g/dL and a TBIL ([…], time 7 day) of 0.044 mg/dL. For the same compound, the TC ([…], time 7 day) was 75.4 mg/dL, the TG ([…], time 7 day) was 90.2 mg/dL and the TP ([…], time 7 day) was 5.9 g/dL. For the same compound, the gamma-GTP ([…], time 7 day) was 1 IU/L, the A/G ([…], time 14 day) was 0.8 and the ALP ([…], time 14 day) was 1619.6 IU/L. It also gave an ALT ([…], time 14 day) of 39.2 IU/L, an AST ([…], time 14 day) of 67.8 IU/L and a BUN ([…], time 14 day) of 15.8 mg/dL. It also gave a CRE ([…], time 14 day) of 0.2 mg/dL, a Ca ([…], time 14 day) of 10.8 mg/dL and a Cl ([…], time 14 day) of 106.6 meq/L. For the same compound, the DBIL ([…], time 14 day) was 0 mg/dL, the GLC ([…], time 14 day) was 191.6 mg/dL and the IP ([…], time 14 day) was 6.8 mg/dL. For the same compound, the K ([…], time 14 day) was 3.9 meq/L, the LDH ([…], time 14 day) was 64.2 IU/L and the Na ([…], time 14 day) was 143.2 meq/L. It also gave a PL ([…], time 14 day) of 153 mg/dL, an RALB ([…], time 14 day) of 2.7 g/dL and a TBIL ([…], time 14 day) of 0.032 mg/dL. It also gave a TC ([…], time 14 day) of 75.6 mg/dL, a TG ([…], time 14 day) of 95 mg/dL and a TP ([…], time 14 day) of 5.9 g/dL. For the same compound, the gamma-GTP ([…], time 14 day) was 1 IU/L, the A/G ([…], time 28 day) was 0.8 and the ALP ([…], time 28 day) was 1341.6 IU/L. It also gave an ALT ([…], time 28 day) of 45.8 IU/L, an AST ([…], time 28 day) of 64 IU/L and a BUN ([…], time 28 day) of 16 mg/dL. For the same compound, the CRE ([…], time 28 day) was 0.2 mg/dL, the Ca ([…], time 28 day) was 10.7 mg/dL and the Cl ([…], time 28 day) was 104 meq/L. For the same compound, the DBIL ([…], time 28 day) was 0.018 mg/dL, the GLC ([…], time 28 day) was 186.6 mg/dL and the IP ([…], time 28 day) was 6 mg/dL. For the same compound, the K ([…], time 28 day) was 3.8 meq/L, the LDH ([…], time 28 day) was 71.4 IU/L and the Na ([…], time 28 day) was 142.2 meq/L. The PL ([…], time 28 day) was 157.8 mg/dL, the RALB ([…], time 28 day) was 2.9 g/dL and the TBIL ([…], time 28 day) was 0.036 mg/dL. For the same compound, the TC ([…], time 28 day) was 80.2 mg/dL, the TG ([…], time 28 day) was 158.4 mg/dL and the TP ([…], time 28 day) was 6.5 g/dL. The gamma-GTP ([…], time 28 day) was 1 IU/L.
